# Measured values: US12655116B2, “Substituted isophthalic acid diamides” (Bayer Aktiengesellschaft, priority 2020, dated 2026)
# Key:
# [1] = tested on: ABUTH; experiment: Pre-emergence herbicidal action against ABUTH; type: in vivo, Abutilon theophrasti; conditions: for Pre-emergence action against ABUTH (herbicidal activity): 80 g/ha, scored visually after 3 weeks vs untreated controls (100% = plants have died, 0% = like control plants); for Pre-emergence action against ABUTH (herbicidal activity in percent): dosage 20 g/ha, scored visually after 3 weeks vs untreated controls, 100% = plants have died, 0% = like control plants
# In short: (§1)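 Seeds sown in sandy loam, soil-covered; compound sprayed on soil surface pre-emergence. Application: WP/EC, 600–800 l/ha, 0.2% wetting agent. Readout: visual % damage at 3 weeks.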
# [2] = tested on: MATIN; experiment: Pre-emergence herbicidal action against MATIN; type: in vivo, Matricaria inodora
# In short: as §1
# [3] = tested on: PHBPU; experiment: Post-emergence herbicidal action against PHBPU; type: in vivo, Pharbitis purpurea
# In short: (§2)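 Sandy loam, greenhouse; treatment 2–3 weeks after sowing, one-leaf stage. Aqueous suspension or emulsion from WP/EC sprayed on foliage (600–800 l/ha, 0.2% wetting agent). Readout: visual % action, ~3 weeks.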
# [4] = tested on: PHBPU; experiment: Pre-emergence herbicidal action against PHBPU; type: in vivo, Pharbitis purpurea
# In short: as §1
# [5] = tested on: VIOTR; experiment: Pre-emergence herbicidal action against VIOTR; type: in vivo, Viola tricolor
# In short: as §1
# [6] = tested on: AVEFA; experiment: Pre-emergence herbicidal action against AVEFA; type: in vivo, Avena fatua; conditions: 80 g/ha, pre-emergence
# In short: as §1
# [7] = tested on: ALOMY; experiment: Post-emergence herbicidal action against ALOMY; type: in vivo, Alopecurus myosuroides; conditions: dosage 20 g/ha, visual assessment about 3 weeks after treatment vs untreated controls
# In short: as §2
# [8] = tested on: AVEFA; experiment: Post-emergence herbicidal action against AVEFA; type: in vivo, Avena fatua; conditions: 20 g/ha, visual assessment about 3 weeks after treatment, 100% = plants have died, 0% = like control plants
# Procedure: Seeds of monocotyledonous and dicotyledonous weed and crop plants are laid out in sandy loam soil in wood-fiber pots, covered with soil and cultivated in a greenhouse under good growth conditions. 2 to 3 weeks after sowing, the test plants are treated at the one-leaf stage. The compounds of the invention, formulated in the form of wettable powders (WP) or as emulsion concentrates (EC), are then sprayed onto the green parts of the plants in the form of an aqueous suspension or emulsion at a water application rate equivalent to 600 to 800 l/ha, with addition of 0.2% wetting agent. After the test plants have been left to stand in the greenhouse under optimal growth conditions for about 3 weeks, the action of the preparations is assessed visually in comparison to untreated controls (herbicidal action in percent (%): 100% activity=the plants have died, 0% activity=like control plants). […] The tables below illustrate, in an illustrative manner, the post-emergence herbicidal action of the compounds of the invention, the herbicidal activity being stated in percent.
# [9] = tested on: ECHCG; experiment: Post-emergence herbicidal action against ECHCG; type: in vivo, Echinochloa crus-galli
# In short: as §2
# [10] = tested on: ECHCG; experiment: Pre-emergence herbicidal action against ECHCG; type: in vivo, Echinochloa crus-galli
# In short: as §1
# [11] = tested on: AMARE; experiment: Pre-emergence herbicidal action against AMARE; type: in vivo, Amaranthus retroflexus
# In short: as §1
# [12] = tested on: ABUTH; experiment: Post-emergence herbicidal action against ABUTH; type: in vivo, Abutilon theophrasti; conditions: visual assessment about 3 weeks after treatment vs untreated controls
# In short: as §2
# [13] = tested on: DIGSA; experiment: Pre-emergence herbicidal action against DIGSA; type: in vivo, Digitaria sanguinalis
# In short: as §1
# [14] = tested on: ALOMY; experiment: Pre-emergence herbicidal action against ALOMY; type: in vivo, Alopecurus myosuroides; conditions: for Pre-emergence action against ALOMY (herbicidal activity): 80 g/ha, scored visually after 3 weeks vs untreated controls (100% = plants have died, 0% = like control plants)
# In short: as §1
# [15] = tested on: SETVI; experiment: Pre-emergence herbicidal action against SETVI; type: in vivo, Setaria viridis
# In short: as §1
# [16] = tested on: VERPE; experiment: Pre-emergence herbicidal action against VERPE; type: in vivo, Veronica persica; conditions: dosage 80 g/ha
# In short: as §1
# [17] = tested on: VERPE; experiment: Post-emergence herbicidal action against VERPE; type: in vivo, Veronica persica; conditions: 20 g/ha
# In short: as §2
# [18] = tested on: MATIN; experiment: Post-emergence herbicidal action against MATIN; type: in vivo, Matricaria inodora
# In short: as §2
# [19] = tested on: SETVI; experiment: Post-emergence herbicidal action against SETVI; type: in vivo, Setaria viridis
# In short: as §2
# [20] = tested on: AMARE; experiment: Post-emergence herbicidal action against AMARE; type: in vivo, Amaranthus retroflexus; conditions: 20 g/ha, visual assessment about 3 weeks after treatment, 100% = plants have died, 0% = like control plants
# In short: as §2
# [21] = tested on: VIOTR; experiment: Post-emergence herbicidal action against VIOTR; type: in vivo, Viola tricolor
# In short: as §2
# [22] = 20 g/ha, scored visually after 3 weeks vs untreated controls, 100% = plants have died, 0% = like control plants
# [23] = 80 g/ha, scored visually after 3 weeks vs untreated controls (100% = plants have died, 0% = like control plants)
SMILES,Pre-emergence action against ABUTH (herbicidal activity) [1],Pre-emergence action against ABUTH (herbicidal activity in percent) [1],Pre-emergence action against MATIN in % ([2]; dosage 20 g/ha),Pre-emergence action against MATIN in % ([2]; dosage 80 g/ha),Post-emergence action against PHBPU in % ([3]; dosage 20 g/ha),Pre-emergence action against PHBPU in % ([4]; dosage 80 g/ha),Pre-emergence action against VIOTR in % ([5]; dosage 20 g/ha),Pre-emergence action against VIOTR in % ([5]; dosage 80 g/ha),Pre-emergence action against AVEFA in % [6],Post-emergence action at 20 g/ha against AVEFA in % [8],Post-emergence action against ECHCG in % ([9]; dosage 20 g/ha),Pre-emergence action against ECHCG in % ([10]; 80 g/ha),"Pre-emergence action against AMARE in % [11, 22]","Pre-emergence action against AMARE in % [11, 23]",Post-emergence action against ABUTH in % ([12]; dosage 5 g/ha),Post-emergence action against ABUTH in % ([12]; dosage 20 g/ha),Pre-emergence action against DIGSA in % ([13]; dosage 20 g/ha),Pre-emergence action against DIGSA in % ([13]; dosage 80 g/ha),Pre-emergence action against ALOMY (herbicidal activity) [14],Pre-emergence action against SETVI in % ([15]; dosage 80 g/ha),other results
Cc1c(C(=O)Nc2nnnn2C)ccc(C(F)(F)F)c1C(=O)NCC(F)F [Example 1-30],100%,100%,100%,100%,80%,100%,100%,100%,100%,80%,80%,80%,100%,100%,80%,80%,100%,100%,80%,100%,Post-emergence action against ALOMY in % [7]: 80%; Pre-emergence action against SETVI in % ([15]; dosage 20 g/ha): 90%
Cc1c(C(=O)Nc2nnnn2C)ccc(C(F)(F)F)c1C(=O)NC(C)C1CC1 (centres unmarked) [Example 1-31],100%,100%,100%,100%,80%,80%,100%,100%,90%,90%,80%,100%,100%,100%,80%,80%,100%,100%,90%,100%,Post-emergence action against ECHCG in % ([9]; dosage 5 g/ha): 80%; Pre-emergence action against ECHCG in % ([10]; 20 g/ha): 90%; Pre-emergence action against VERPE in % [16]: 100%; Post-emergence action against VERPE in % [17]: 80%
CCn1nnnc1NC(=O)c1ccc(C(F)(F)F)c(C(=O)NCC(F)(F)F)c1C [Example 2-29],100%,100%,100%,100%,80%,80%,100%,100%,100%,80%,80%,100%,100%,100%,,80%,90%,100%,80%,100%,Post-emergence action against MATIN in % ([18]; dosage 20 g/ha): 80%; Post-emergence action against SETVI in % ([19]; dosage 20 g/ha): 80%
CCn1nnnc1NC(=O)c1ccc(C(F)(F)F)c(C(=O)NCC(F)F)c1SC [Example 2-86],100%,100%,100%,100%,90%,90%,,100%,90%,80%,100%,100%,100%,100%,80%,100%,,,90%,100%,Post-emergence action against MATIN in % ([18]; dosage 5 g/ha): 80%; Post-emergence action against MATIN in % ([18]; dosage 20 g/ha): 90%; Post-emergence action against PHBPU in % ([3]; dosage 5 g/ha): 80%; Pre-emergence action against PHBPU in % ([4]; dosage 20 g/ha): 80%; Post-emergence action against ALOMY in % [7]: 80%; Post-emergence action against ECHCG in % ([9]; dosage 5 g/ha): 100%; Pre-emergence action against ECHCG in % ([10]; 20 g/ha): 80%; Pre-emergence action against VERPE in % [16]: 90%; Post-emergence action at 20 g/ha against AMARE in % [20]: 100%; Post-emergence action against SETVI in % ([19]; dosage 5 g/ha): 100%; Post-emergence action against SETVI in % ([19]; dosage 20 g/ha): 100%; Post-emergence action against VIOTR in % ([21]; 5 g/ha): 100%; Post-emergence action against VIOTR in % ([21]; 20 g/ha): 100%
CCc1c(C(=O)Nc2nnnn2CC)ccc(C(F)(F)F)c1C(=O)NC(C)C1CC1 (centres unmarked) [Example 2-341],100%,100%,100%,100%,80%,80%,90%,100%,90%,90%,90%,100%,100%,100%,,80%,,,90%,90%,"Post-emergence action against MATIN in % ([18]; dosage 20 g/ha): 80%; Post-emergence action against ECHCG in % ([9]; dosage 5 g/ha): 80%; Pre-emergence action against VERPE in % [16]: 90%; Post-emergence action at 20 g/ha against AMARE in % [20]: 100%; Pre-emergence action against ALOMY ([14]; 20 g/ha, scored visually after 3 weeks, 100% = plants have died, 0% = like control plants): 80%"
